Compound in one assay: NC(=O)CCCCC1CCSS1 [lipoamide]
Description: thermal stability z-score vs DMSO; higher = more thermally stabilized by treatment. As to conditions: HeLa, lipoamide concentration 100 µM. Here is the method:
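Cellular thermal proteome profiling in HeLa cells. Cells were treated with 100 µM lipoamide for 1 h, with or without 1 mM arsenate for a further 1 h, then heated to ten temperatures (37-66.3 °C), and soluble protein was quantified by TMT mass spectrometry relative to 0.1% DMSO controls. The thermal stability score (sum of log2 fold changes minus the abundance score) was transformed to a z-score; mean of n = 3 experiments.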

Compound in another assay: O=[As]([O-])(O)O.[K+] [potassium arsenate]
Described as above. As to conditions: HeLa; arsenate concentration 1 mM. The protocol:
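Cellular thermal proteome profiling in HeLa cells treated with 1 mM arsenate for 1 h (DMSO pretreatment), heated to ten temperatures (37-66.3 °C). Soluble protein was quantified by TMT mass spectrometry relative to DMSO controls; the thermal stability score was transformed to a z-score; mean of n = 3 experiments.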

Where [1] appears, read: arsenate co-treatment: 1 mM arsenate 1 h.
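Further: each temperature applied for 3 min, abundance score taken as mean log2 fold change at the two lowest temperatures, z-score obtained by mean subtraction and division by SD.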

Chain of UniProt Q96G25 (Q96G25 whole entry): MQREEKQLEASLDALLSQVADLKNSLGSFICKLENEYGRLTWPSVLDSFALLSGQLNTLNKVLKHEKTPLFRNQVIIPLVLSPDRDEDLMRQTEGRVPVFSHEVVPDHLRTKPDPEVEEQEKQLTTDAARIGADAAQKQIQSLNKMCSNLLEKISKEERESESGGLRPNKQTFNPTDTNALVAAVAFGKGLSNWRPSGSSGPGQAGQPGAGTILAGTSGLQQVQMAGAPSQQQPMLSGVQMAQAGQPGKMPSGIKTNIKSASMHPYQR
Chain of UniProt Q9ULK4 (Q9ULK4 whole entry): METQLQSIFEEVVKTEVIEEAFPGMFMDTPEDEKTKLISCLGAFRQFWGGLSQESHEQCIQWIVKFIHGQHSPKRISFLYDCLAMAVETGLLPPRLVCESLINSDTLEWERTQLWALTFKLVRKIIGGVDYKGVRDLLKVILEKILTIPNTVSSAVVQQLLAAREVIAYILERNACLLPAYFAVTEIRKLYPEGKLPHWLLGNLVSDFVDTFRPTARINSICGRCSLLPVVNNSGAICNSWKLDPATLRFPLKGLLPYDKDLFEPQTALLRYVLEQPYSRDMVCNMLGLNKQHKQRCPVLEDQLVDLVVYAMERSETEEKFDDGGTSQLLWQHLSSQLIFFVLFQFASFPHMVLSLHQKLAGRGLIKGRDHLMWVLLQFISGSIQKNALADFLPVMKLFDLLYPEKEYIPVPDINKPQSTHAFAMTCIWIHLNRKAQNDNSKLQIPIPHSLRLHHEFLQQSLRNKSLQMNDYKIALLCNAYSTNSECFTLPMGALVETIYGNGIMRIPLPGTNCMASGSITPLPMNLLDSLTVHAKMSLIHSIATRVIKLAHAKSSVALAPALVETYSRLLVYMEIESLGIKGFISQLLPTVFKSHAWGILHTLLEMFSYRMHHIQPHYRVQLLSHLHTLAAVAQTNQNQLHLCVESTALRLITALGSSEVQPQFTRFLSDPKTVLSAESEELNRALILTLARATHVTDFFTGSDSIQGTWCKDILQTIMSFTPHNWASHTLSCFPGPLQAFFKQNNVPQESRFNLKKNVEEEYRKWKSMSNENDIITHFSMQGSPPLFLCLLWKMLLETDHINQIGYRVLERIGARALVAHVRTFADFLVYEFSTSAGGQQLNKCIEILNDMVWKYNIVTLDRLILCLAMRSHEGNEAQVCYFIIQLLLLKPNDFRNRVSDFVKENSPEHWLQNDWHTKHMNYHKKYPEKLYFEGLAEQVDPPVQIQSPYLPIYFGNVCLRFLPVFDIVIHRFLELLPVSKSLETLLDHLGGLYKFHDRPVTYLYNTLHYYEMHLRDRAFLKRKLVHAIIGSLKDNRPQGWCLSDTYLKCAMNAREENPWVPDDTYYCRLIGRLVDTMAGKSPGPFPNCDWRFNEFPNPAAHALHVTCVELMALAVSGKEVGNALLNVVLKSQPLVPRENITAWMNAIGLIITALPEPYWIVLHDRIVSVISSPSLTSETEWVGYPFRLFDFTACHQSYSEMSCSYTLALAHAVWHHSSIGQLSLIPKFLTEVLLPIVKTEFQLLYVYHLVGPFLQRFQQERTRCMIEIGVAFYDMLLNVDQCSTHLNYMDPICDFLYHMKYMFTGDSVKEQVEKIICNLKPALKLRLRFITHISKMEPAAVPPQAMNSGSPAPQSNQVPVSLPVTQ
Chain of UniProt Q9Y2X0 (Q9Y2X0 whole entry): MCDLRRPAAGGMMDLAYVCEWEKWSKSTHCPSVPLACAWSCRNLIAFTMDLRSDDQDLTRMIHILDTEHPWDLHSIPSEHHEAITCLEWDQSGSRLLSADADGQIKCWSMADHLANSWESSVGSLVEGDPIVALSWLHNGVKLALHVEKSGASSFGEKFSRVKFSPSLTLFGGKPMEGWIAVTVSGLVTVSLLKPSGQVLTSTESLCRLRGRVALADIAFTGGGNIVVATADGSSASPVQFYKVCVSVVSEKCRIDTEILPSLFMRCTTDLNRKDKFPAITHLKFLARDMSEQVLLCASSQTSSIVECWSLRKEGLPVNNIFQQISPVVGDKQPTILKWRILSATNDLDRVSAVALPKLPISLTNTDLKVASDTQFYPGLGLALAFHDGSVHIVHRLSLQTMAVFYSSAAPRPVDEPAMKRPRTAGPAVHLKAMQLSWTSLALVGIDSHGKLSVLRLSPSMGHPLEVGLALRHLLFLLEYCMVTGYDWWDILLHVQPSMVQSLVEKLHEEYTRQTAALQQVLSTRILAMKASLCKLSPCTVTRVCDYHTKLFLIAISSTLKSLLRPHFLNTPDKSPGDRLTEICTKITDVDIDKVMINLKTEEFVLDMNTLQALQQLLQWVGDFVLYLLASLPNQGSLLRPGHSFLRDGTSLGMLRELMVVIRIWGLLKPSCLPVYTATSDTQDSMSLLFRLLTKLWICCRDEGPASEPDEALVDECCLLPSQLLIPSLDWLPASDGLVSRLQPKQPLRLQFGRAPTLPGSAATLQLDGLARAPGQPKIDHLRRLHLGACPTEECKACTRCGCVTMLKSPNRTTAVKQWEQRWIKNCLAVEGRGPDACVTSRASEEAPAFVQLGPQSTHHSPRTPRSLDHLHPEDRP
Chain of UniProt Q6P1Q9 (Q6P1Q9 whole entry): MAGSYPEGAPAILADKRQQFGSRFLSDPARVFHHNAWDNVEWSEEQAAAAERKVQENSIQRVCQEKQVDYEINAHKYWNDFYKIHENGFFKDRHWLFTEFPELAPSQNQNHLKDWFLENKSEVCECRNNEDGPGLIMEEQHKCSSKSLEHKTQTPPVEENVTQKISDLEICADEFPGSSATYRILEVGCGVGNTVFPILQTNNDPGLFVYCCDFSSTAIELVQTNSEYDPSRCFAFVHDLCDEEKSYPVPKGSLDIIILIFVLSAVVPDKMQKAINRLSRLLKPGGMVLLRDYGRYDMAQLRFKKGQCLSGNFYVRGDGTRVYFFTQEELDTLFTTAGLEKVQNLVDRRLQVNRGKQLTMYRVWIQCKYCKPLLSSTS
Chain of UniProt Q9H944 (Q9H944 whole entry): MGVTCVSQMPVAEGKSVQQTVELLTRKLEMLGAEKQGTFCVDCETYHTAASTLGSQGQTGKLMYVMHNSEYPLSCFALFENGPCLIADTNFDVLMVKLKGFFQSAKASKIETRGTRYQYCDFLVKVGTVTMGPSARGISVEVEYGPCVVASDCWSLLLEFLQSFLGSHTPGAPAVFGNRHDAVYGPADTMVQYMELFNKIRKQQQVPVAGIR
Chain of UniProt Q9BUE0 (Q9BUE0 whole entry): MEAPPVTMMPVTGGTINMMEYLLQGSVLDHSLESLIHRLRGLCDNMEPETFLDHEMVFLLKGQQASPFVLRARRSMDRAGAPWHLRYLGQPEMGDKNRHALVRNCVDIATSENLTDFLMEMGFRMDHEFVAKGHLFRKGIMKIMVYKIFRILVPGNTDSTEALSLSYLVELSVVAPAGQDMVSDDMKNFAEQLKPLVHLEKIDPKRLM
Chain of UniProt Q14680 (Q14680 whole entry, looked up): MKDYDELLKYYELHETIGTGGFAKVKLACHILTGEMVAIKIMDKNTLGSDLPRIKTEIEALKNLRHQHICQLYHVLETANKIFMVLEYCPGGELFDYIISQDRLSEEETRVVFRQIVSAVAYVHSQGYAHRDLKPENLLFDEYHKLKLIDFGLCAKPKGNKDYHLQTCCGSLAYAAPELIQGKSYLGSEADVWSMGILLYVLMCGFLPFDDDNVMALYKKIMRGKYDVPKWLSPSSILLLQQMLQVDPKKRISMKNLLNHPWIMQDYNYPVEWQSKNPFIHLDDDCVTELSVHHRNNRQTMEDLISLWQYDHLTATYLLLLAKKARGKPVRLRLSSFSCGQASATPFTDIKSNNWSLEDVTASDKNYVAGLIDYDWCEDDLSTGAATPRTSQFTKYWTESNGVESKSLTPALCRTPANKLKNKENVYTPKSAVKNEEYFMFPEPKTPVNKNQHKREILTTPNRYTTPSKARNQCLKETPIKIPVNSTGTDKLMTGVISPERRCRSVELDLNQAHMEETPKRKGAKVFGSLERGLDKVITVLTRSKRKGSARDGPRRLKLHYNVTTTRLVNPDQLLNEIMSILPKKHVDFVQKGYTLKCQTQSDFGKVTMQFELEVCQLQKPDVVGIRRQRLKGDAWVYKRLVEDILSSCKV
Chain of UniProt Q9NVC6 (Q9NVC6 whole entry): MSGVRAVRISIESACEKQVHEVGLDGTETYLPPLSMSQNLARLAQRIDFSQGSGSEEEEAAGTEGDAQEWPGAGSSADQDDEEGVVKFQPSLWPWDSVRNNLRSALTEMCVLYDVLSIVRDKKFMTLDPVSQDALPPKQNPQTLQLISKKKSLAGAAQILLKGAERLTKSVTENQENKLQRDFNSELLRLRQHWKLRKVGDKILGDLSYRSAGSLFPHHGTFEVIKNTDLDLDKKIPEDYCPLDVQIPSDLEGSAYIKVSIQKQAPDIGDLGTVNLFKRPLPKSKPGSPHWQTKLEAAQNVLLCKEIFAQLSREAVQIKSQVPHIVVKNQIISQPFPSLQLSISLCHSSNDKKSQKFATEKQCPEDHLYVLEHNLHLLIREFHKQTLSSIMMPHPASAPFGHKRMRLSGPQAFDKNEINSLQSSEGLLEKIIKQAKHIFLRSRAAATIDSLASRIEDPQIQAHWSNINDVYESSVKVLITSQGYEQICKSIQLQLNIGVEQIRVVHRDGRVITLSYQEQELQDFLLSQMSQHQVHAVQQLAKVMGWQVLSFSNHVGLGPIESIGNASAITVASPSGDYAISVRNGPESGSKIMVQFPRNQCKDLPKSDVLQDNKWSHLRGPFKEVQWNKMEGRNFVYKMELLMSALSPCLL
Chain of UniProt P40925 (P40925 whole entry): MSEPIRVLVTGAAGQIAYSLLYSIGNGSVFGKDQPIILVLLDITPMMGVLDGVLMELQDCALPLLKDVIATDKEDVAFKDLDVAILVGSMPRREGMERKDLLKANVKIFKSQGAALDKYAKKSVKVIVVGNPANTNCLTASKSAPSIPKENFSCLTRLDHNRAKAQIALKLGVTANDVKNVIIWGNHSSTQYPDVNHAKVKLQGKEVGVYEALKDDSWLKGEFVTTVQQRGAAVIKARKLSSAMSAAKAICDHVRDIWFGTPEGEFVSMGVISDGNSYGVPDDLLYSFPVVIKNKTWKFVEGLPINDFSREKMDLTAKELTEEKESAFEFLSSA
Chain of UniProt Q96IZ6 (Q96IZ6 whole entry): as the sequence (Q6P1Q9 whole entry) above, with I12V, S26R, C124P, P155L, V266I, V288M counted along it

For MCU (UniProt Q8NE86), the thermal stability z-score is -0.0937 with lipoamide (setting [1]), 0.21 in the assay with lipoamide (arsenate co-treatment: none) and 0.57 with potassium arsenate.
Regarding MCUR1 (UniProt Q96AQ8), the thermal stability z-score is 0.853 in the assay with lipoamide (setting [1]), 1.15 with lipoamide (arsenate co-treatment: none) and -0.0449 with potassium arsenate.
Take MDC1 (UniProt Q14676): the thermal stability z-score with lipoamide (setting [1]) is 0.374; in the assay with lipoamide (arsenate co-treatment: none), 0.00253; in the assay with potassium arsenate it was -0.363.
Take MDH1 (UniProt P40925): the thermal stability z-score was 0.208 with lipoamide (setting [1]), 0.368 in the assay with lipoamide (arsenate co-treatment: none) and -1.45 in the assay with potassium arsenate.
Consider MDH2 (UniProt P40926), for which the thermal stability z-score in the assay with lipoamide (setting [1]) is 0.922; with lipoamide (arsenate co-treatment: none), 0.615; in the assay with potassium arsenate it was -0.963.
As for MDN1 (UniProt Q9NU22), the thermal stability z-score is 0.0494 with lipoamide (setting [1]), 0.0439 with lipoamide (arsenate co-treatment: none) and 0.0865 in the assay with potassium arsenate.
For the target ME1 (UniProt P48163), the thermal stability z-score is 0.408 in the assay with lipoamide (setting [1]), 0.575 with lipoamide (arsenate co-treatment: none) and -0.207 with potassium arsenate.
As for ME2 (UniProt P23368), the thermal stability z-score with lipoamide (setting [1]) is 0.621; with lipoamide (arsenate co-treatment: none) it was -0.0427; in the assay with potassium arsenate, -1.26.
With ME3 (UniProt Q16798), the thermal stability z-score in the assay with lipoamide (setting [1]) amounted to 1.29; with lipoamide (arsenate co-treatment: none), 1.51; with potassium arsenate, 0.6.
Take MEA1 (UniProt Q16626): the thermal stability z-score stood at 1.48 with lipoamide (setting [1]), 1.28 with lipoamide (arsenate co-treatment: none) and 0.711 with potassium arsenate.
Consider MEAF6 (UniProt Q9HAF1), for which the thermal stability z-score in the assay with lipoamide (setting [1]) is 0.687; in the assay with lipoamide (arsenate co-treatment: none), -0.0341; in the assay with potassium arsenate, -0.821.
The corresponding values for MECP2 (UniProt P51608) are -0.157, -0.207 and -0.147.
In the case of MECR (UniProt Q9BV79), the thermal stability z-score with lipoamide (setting [1]) is 0.217; with lipoamide (arsenate co-treatment: none), -0.251; with potassium arsenate, 0.152.
As to MED1 (UniProt Q15648), the thermal stability z-score with lipoamide (setting [1]) turned out to be 0.948; in the assay with lipoamide (arsenate co-treatment: none) it was 0.662; in the assay with potassium arsenate, 0.125.
MED4 (UniProt Q9NPJ6): the thermal stability z-score was 0.794 with lipoamide (setting [1]), 0.377 in the assay with lipoamide (arsenate co-treatment: none) and -0.174 with potassium arsenate.
As to MED6 (UniProt O75586), the values for the thermal stability z-score with lipoamide (setting [1]), with lipoamide (arsenate co-treatment: none) and in the assay with potassium arsenate were 0.171, 0.0477 and 0.00858, respectively.
As for MED7 (UniProt O43513), the thermal stability z-score with lipoamide (setting [1]) was -0.0337; with lipoamide (arsenate co-treatment: none), -0.104; in the assay with potassium arsenate, -0.328.
The like results for MED8 (UniProt Q96G25) were, in that order, 0.954, 0.843 and 0.0962.
As to MED12 (UniProt Q93074), the thermal stability z-score is -0.255 with lipoamide (setting [1]), -0.248 with lipoamide (arsenate co-treatment: none) and 0.0377 with potassium arsenate.
Take MED14 (UniProt O60244): the figures for the thermal stability z-score in the assay with lipoamide (setting [1]), with lipoamide (arsenate co-treatment: none) and with potassium arsenate were -0.0798, -0.176 and -0.2, respectively.
Take MED15 (UniProt Q96RN5): the thermal stability z-score in the assay with lipoamide (setting [1]) was -0.382; with lipoamide (arsenate co-treatment: none) it was -0.574; with potassium arsenate it was -2.01.
Regarding MED16 (UniProt Q9Y2X0), the thermal stability z-score was -0.0673 in the assay with lipoamide (setting [1]), 0.0989 with lipoamide (arsenate co-treatment: none) and -0.0825 with potassium arsenate.
The corresponding values for MED17 (UniProt Q9NVC6) are 0.255, -0.466 and -0.697.
As to MED18 (UniProt Q9BUE0), the figures for the thermal stability z-score in the assay with lipoamide (setting [1]), with lipoamide (arsenate co-treatment: none) and in the assay with potassium arsenate were -0.0409, 0.0953 and -0.382, respectively.
The like results for MED20 (UniProt Q9H944) were, in that order, 0.506, -0.154 and -0.226.
With MED23 (UniProt Q9ULK4), the thermal stability z-score was -0.0582 with lipoamide (setting [1]), -0.269 with lipoamide (arsenate co-treatment: none) and -0.274 with potassium arsenate.
For the target MED24 (UniProt O75448), the values for the thermal stability z-score with lipoamide (setting [1]), with lipoamide (arsenate co-treatment: none) and in the assay with potassium arsenate were 0.0619, -0.0126 and -0.0686, respectively.
The like results for MED25 (UniProt Q71SY5) were, in that order, -0.264, -0.252 and 0.0488.
For MED27 (UniProt Q6P2C8), the values for the thermal stability z-score with lipoamide (setting [1]), with lipoamide (arsenate co-treatment: none) and with potassium arsenate were -0.0367, 0.069 and 0.0267, respectively.
Take MEF2D (UniProt Q14814): the thermal stability z-score with lipoamide (setting [1]) was 0.00357; in the assay with lipoamide (arsenate co-treatment: none), 0.197; with potassium arsenate, 0.288.
As to MELK (UniProt Q14680), the thermal stability z-score with lipoamide (setting [1]) is -0.0697; in the assay with lipoamide (arsenate co-treatment: none) it was -0.0146; with potassium arsenate, -0.32.
For the target MEMO1 (UniProt Q9Y316), the thermal stability z-score in the assay with lipoamide (setting [1]) was found to be 0.326; with lipoamide (arsenate co-treatment: none), 0.0877; with potassium arsenate, 0.0822.
On to MEPCE (UniProt Q7L2J0), for which the thermal stability z-score is -0.372 with lipoamide (setting [1]), 0.65 with lipoamide (arsenate co-treatment: none) and 1.22 with potassium arsenate.
MESDC2 (UniProt Q14696): the thermal stability z-score is -1.36 with lipoamide (setting [1]), -1.28 in the assay with lipoamide (arsenate co-treatment: none) and 0.346 in the assay with potassium arsenate.
In the case of MET (UniProt P08581), the thermal stability z-score with lipoamide (setting [1]) is -0.338; with lipoamide (arsenate co-treatment: none) it was -0.235; with potassium arsenate, 0.073.
For METAP1 (UniProt P53582), the thermal stability z-score with lipoamide (setting [1]) was -0.0942; in the assay with lipoamide (arsenate co-treatment: none) it was -0.673; with potassium arsenate, 0.894.
For the target METAP2 (UniProt P50579), the thermal stability z-score worked out at 0.0427 with lipoamide (setting [1]), 0.326 in the assay with lipoamide (arsenate co-treatment: none) and 0.409 with potassium arsenate.
Regarding METTL1 (UniProt Q9UBP6), the thermal stability z-score was 0.351 in the assay with lipoamide (setting [1]), 0.439 in the assay with lipoamide (arsenate co-treatment: none) and 0.207 with potassium arsenate.
Regarding METTL2A (UniProt Q96IZ6), the thermal stability z-score in the assay with lipoamide (setting [1]) was 0.394; with lipoamide (arsenate co-treatment: none), 0.528; with potassium arsenate, -0.0971.
The like results for METTL2B (UniProt Q6P1Q9) were, in that order, -0.019, -0.11 and -0.0568.
With METTL3 (UniProt Q86U44), the thermal stability z-score with lipoamide (setting [1]) is -0.16; in the assay with lipoamide (arsenate co-treatment: none), 0.0119; with potassium arsenate, 0.165.
As to METTL5 (UniProt Q9NRN9), the thermal stability z-score was 0.768 in the assay with lipoamide (setting [1]), -0.318 with lipoamide (arsenate co-treatment: none) and 0.233 in the assay with potassium arsenate.
As to METTL7A (UniProt Q9H8H3), the thermal stability z-score stood at 2.84 with lipoamide (setting [1]), 2.54 with lipoamide (arsenate co-treatment: none) and 0.632 with potassium arsenate.

The values are drawn from the supplement of paper PMC12463676, “Small-molecule dissolution of stress granules by redox modulation benefits ALS models” (Nature Chemical Biology, 2025).
